# Reference: patent publication US6627408B1, “Antifungal assay” (Cytokinetics, Inc., priority 2000, dated 2003)
# How the values were obtained:
# [1] = target: T1, A. nidulans bimC motor domain (Emericella nidulans, UniProt P17120); assay: ATPase assay of bimC motor domain (ATP hydrolysis, ADP or phosphate readout); type: biochemical, Aspergillus nidulans; conditions: bimC kinesin motor domain; motor domain fragment cloned and expressed in bacteria; FIG. 14
# T1 construct: ATPase (bimC kinesin motor domain); made in house; host or cells: bacteria
# T1 sequence (P17120 81-416 limits assumed): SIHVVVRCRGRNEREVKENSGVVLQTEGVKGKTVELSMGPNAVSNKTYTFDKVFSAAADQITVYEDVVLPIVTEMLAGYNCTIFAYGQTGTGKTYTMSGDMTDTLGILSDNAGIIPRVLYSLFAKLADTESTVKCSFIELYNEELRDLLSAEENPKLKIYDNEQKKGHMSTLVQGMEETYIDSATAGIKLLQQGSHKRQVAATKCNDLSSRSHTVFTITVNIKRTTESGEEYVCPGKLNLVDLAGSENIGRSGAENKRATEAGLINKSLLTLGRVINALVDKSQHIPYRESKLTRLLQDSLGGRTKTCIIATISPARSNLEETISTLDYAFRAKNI
# Source text: FIG. 12 depicts the cloning and expression of A. nidulans bimC motor domain. In Panel A, an overview of the express is shown. The fragment containing the bimC motor domain is indicated by a filled semi-circle. In B, a Coomassie stained gel of the purification of bimC motor domain is shown.
# Aspergillus nidulans bimC is a kinesin related protein (KRP) whose gene product encodes an essential mitotic KRP. BimC is the founding member of the bimC subfamily of mitotic kinesins (Morris NR, Enos AP. (1992) Trends Genet 8:1 32-7). Mutants in bimC are blocked in mitosis and arrest with duplicated but unseparated spindle poles. (Enos AP, Morris NR. (1990) Cell 60:6 1019-27). Following the discovery that bimC encodes a KRP, several bimC family members have been identified in diverse organisms ranging from yeast to humans. See. FIG. 1. […]
# In a particularly preferred embodiment, a fragment of the bimC protein comprising its hydrolytically active “motor” domain is used. This motor domain has been cloned and expressed in bacteria such that large quantities of biochemically active, substantially pure protein are available (FIG. 12). […]
# In a preferred embodiment, activity is measured by the methods disclosed in Serial No. 09/314,464, filed May 18, 1999, which is incorporated herein by reference in its entirety. […] The presence of ADP or inorganic phosphate release is used as the readout for protein activity. […]
# [2] = test system: mammalian tubulin; conditions: cited from earlier work
# [3] = test system: fungal tubulin; conditions: cited from earlier work
smiles,measurement,setting,value
O=C1OC(c2ccco2)=N/C1=C\c1ccc(Br)s1 [D00018 row 1],IC50,[1],25 µM
CCCCNC(=O)n1c(NC(=O)OC)nc2ccccc21 [benomyl],effect on mammalian tubulin,[2],no effect
same,inhibition of fungal tubulin,[3],potent inhibitor
